Assay results reported in patent US20140161827A1, “COMPOSITIONS AND METHODS FOR TREATING CANCER” (University of Virginia Patent Foundation, priority 2011, published 2014).
pIC50: −log10 of the molar value. Where a SMILES comes first, the peptide text is derived from it. The star is where a group is joined. Cbz = O=C(OCc1ccccc1)*; CH2F = FC*

What was measured:
LTED cells [1] = assay: Levels of apoptotic proteins in treated LTED cells (immunoblot of cytosolic and mitochondrial fractions, immunoprecipitation); assay type: cell-based, human; settings: for Mcl-1 level: FTS 75 μM 0-48 h (by 24 h) or estradiol 0-48 h; for Bim level (BimEL, BimL): FTS 75 μM 0-48 h or estradiol 0-48 h (early time points 4, 8 h); for Survivin level: FTS 75 μM (from 8 to 16 h, undetectable at 24 and 48 h) or estradiol; for Phospho JNK level: FTS 75 μM over 48 hours or estradiol; for Cytochrome c level in the cytosol / Smac (Smac/Diablo) level in the cytosol: FTS at 24 and 48 h, estradiol by 48 h
Method: The inventors herein initially examined the class of proteins which influences MOMP (mitochondrial outer membrane pore) formation, a key component of the intrinsic pathway of apoptosis. Pro-apoptotic members such as Bax, Bim, and Bak, promote the release of Cytochrome c from the mitochondria, whereas anti-apoptotic members, such as Bcl-2 and Mcl-1, prevent release. The balance of pro-apoptotic and anti-apoptotic Bcl-2 proteins therefore influences the fate of the cell. LTED cells were treated with 75 μM FTS for 0, 4, 8, 16, 24 and 48 h with examination of cytosolic fractions (FIG. 1A).
To ascertain whether Bax was activated in FTS-treated LTED cells, Bcl-2 was immunoprecipitated and then probed for Bim and Bax (See FIG. 1B). Probed cell extracts were probed with the use of an antibody that recognizes only the conformationally altered Bax protein. […] The pro-apoptotic effect of Bim is predominantly through its binding to Bcl-2 that ablates Bcl-2 pro-survival function. As shown in FIG. 1B we found the interaction between Bim and Bcl-2 is increased, whereas the interaction between Bax and Bcl-2 was reduced. As evidence of the exodus of proteins through mitochondrial membrane pores, Cytochrome c and Smac levels in the cytosol were increased at 24 and 48 h, times when Mcl-1 was decreased and Bim, increased (FIG. 1A). […] After showing these effects on MOMP, other key factors involved in apoptosis were examined.
Cells were treated with estradiol for 0, 2, 4, 8, 24 and 48 h and cytosolic fractions prepared. […] Mitochondrial fractions (FIG. 1D, right panel), confirmed the increase in Bim isoforms. […] Because Bim appeared to be critical for estradiol-mediated apoptosis, we carried out a titration of E2, probed for Bim and found it increased over time (See FIG. 1E).
Cells grown in 100 mm dishes were washed with cold PBS and extracted with 1 ml lysis buffer (50 mM Tris-HCl, 150 mM NaCl, 5 mM EDTA, 25 mM NaF, 2 mM NaVO4, 5% glycerol, 1% Triton X-100, 10 μg/ml leupeptin, aprotinin, and pepstatin). Samples were incubated on ice for 30 min, sonicated, and centrifuged at 14,000 rpm for 10 min at 4° C. Supernatants containing 0.5 mg total protein were incubated with antibody against the target protein at 4° C. overnight before addition of 40 μl Protein G beads (Invitrogen) and continued incubation at 4° C. for 2 h. The protein G beads with immunocomplex were centrifuged at 14,000 rpm for 20 sec. The supernatant was carefully removed. The beads were washed twice with 1 ml buffer II (20 mM MOPS, 2 mM EGTA, 5 mM EDTA, 25 mM NaF, 40 mM β-glycerophosphate, 10 mM sodium pyrophosphate, 2 mM NaVO4, 0.5% Triton X-100, 1 mM PMSF, 10 μg/ml leupeptin, aprotinin, and pepstatin) and then boiled in 50 μl 2× Laemmli's buffer. The samples were subjected to electrophoresis in 10% SDS polyacrylamide gel followed by immunoblotting.

[2] = system: LTED (long-term estrogen deprived) cells; assay: Growth inhibition and drug interaction assay (nuclei count, combination index), LTED; assay type: cell-based, human
Method: When the combination index is equivalent to one (CI=1), this means the two drugs work together in an additive manner. […] The effective dose one (D1) is then plotted on the x-axis and the effective dose two (D2) was plotted on the y-axis. The plotting of the effective dose (ED) can be is done at Fa equals 0.5, 0.75, 0.9 and 0.95. This generates the isobologram.
Cells were plated in six-well plates at a density of 60,000 cells per well. Two days later, the cells were treated in triplicate as described in the descriptions of the figures. At the end of treatment, cells were rinsed twice with saline. Nuclei were prepared by sequential addition of 1 mL HEPES-MgCl2 solution (0.01 mol/L HEPES and 1.5 mmol/L MgCl2) and 0.1 mL ZAP solution [0.13 mol/L ethylhexadecyldimethylammonium bromide in 3% glacial acetic acid (v/v)] and were counted using a Coulter counter (BeckmanCoulter, Inc., Fullerton, Calif.). […] The combination index and values with a mean and standard deviation were calculated using the Monte Carlo simulation using the computer software CalcuSyn from Biosoft (Cambridge, U.K.) [10].
The nature of the interaction between the agents was evaluated by the combination index method of Chou and Talalay [8,9]. […]
Where D is the dose that yields x % growth inhibition and α=0 for mutually exclusive drugs and α=1 for mutually non-exclusive drugs. Synergy as calculated and defined by the CalcuSyn software as a CI<1; additivity is CI=1 and antagonism is CI>1[10].

LTED cells [3] = assay: FTS-induced apoptosis and caspase involvement in LTED cells; assay type: cell-based, human
Method: FTS has been reported to invoke cell death through caspase activation in non-breast tissues. To address whether FTS was promoting death of breast cancer cells by activation of caspases LTED cells were treated with either vehicle, FTS, or FTS in the presence of increasing concentrations of the pan-caspase inhibitor z-VAD-fmk (See FIG. 1C top panel). […] Caspase-8 activity does appear to increase; however this is not inhibited by Z-IETD-FMK. See FIG. 2, showing a time course bar graph (2A) and a cell viability versus concentration curve (2B) displaying (FIG. 2A) the effect of FTS and curcumin in combination on wild type MCF-7 cells; and (FIG. 2B) the effect of FTS alone or in combination with curcumin on MCF-7 cell viability.

MCF-7-5C cells = assay: Apoptosis in MCF-7-5C cells, E2 and T-DM-1 alone and in combination; assay type: cell-based; settings: agent alone
MCF-7 cells = assay: Growth inhibition and drug interaction assay (nuclei count, combination index), MCF-7; assay type: cell-based; settings: Homo sapiens, MCF7, FIG. 3, read-out: concentration with 50% inhibitory effect
Text: We examined some of these agents in both the non-adapted cell lines (See FIGS. 4, 6, 8) and adapted cell lines (See FIGS. 5, 7, 9). We treated breast cancer cells with increasing concentrations of the individual drugs followed by testing with their combinations. We determined the number of cells that were killed (fraction affected, fa) and the number of cells that were not affected by the drug (fraction unaffected, fu) (See FIG. 4). Then dose effect curves are transformed into their corresponding linear forms by the median-effect plot where y=log(fa/fu) vs. x=log (D)[8,34]. From the median effect plot the combination index (CI) can be determined. […]
Cells were plated in six-well plates at a density of 60,000 cells per well. […] Nuclei were prepared by sequential addition of 1 mL HEPES-MgCl2 solution (0.01 mol/L HEPES and 1.5 mmol/L MgCl2) and 0.1 mL ZAP solution [0.13 mol/L ethylhexadecyldimethylammonium bromide in 3% glacial acetic acid (v/v)] and were counted using a Coulter counter (BeckmanCoulter, Inc., Fullerton, Calif.). […] The combination index and values with a mean and standard deviation were calculated using the Monte Carlo simulation using the computer software CalcuSyn from Biosoft (Cambridge, U.K.).
The nature of the interaction between the agents was evaluated by the combination index method of Chou and Talalay. […]

[4] = FTS-treated LTED cells, Bcl-2 immunoprecipitation

Molecule | Mcl-1 level (LTED cells [1]; LTED cells) | Bim level (BimEL, BimL) (LTED cells [1]; LTED cells) | Survivin level (LTED cells [1]; LTED cells) | Phospho JNK level (LTED cells [1]; LTED cells) | Cytochrome c level in the cytosol (LTED cells [1]; LTED cells) | Smac (Smac/Diablo) level in the cytosol (LTED cells [1]; LTED cells) | induction of apoptosis (MCF-7-5C cells) | also measured
CC(C)=CCC/C(C)=C/CC/C(C)=C/CSc1ccccc1C(=O)O [FTS, S-trans, trans-Farnesylthiosalicyclic acid] | decrease | increase | decreased | increased | increased | increased |  | Apoptosis inducing factor (AIF) in the cytosol (LTED cells [1]; FTS-treated LTED cells): appeared in the cytosol only at 48 h; interaction between Bax and Bcl-2 (LTED cells [1]; [4]): reduced; interaction between Bim and Bcl-2 (LTED cells [1]; [4]): increased; Bax activation (conformationally altered Bax) (LTED cells [1]; FTS-treated LTED cells, conformation-specific antibody): underwent a conformational change; Bcl-2 level (LTED cells [1]; LTED cells, FTS 75 μM 0-48 h, cytosolic fractions): unchanged; XIAP level (LTED cells [1]; LTED cells, FTS 75 μM or estradiol): did not change; p21 level (LTED cells [1]; LTED cells, FTS 75 μM, from 4 h to 48 h): steady decrease; cell number ([2]; FTS alone, doses 25, 50, 75 and 100 μM): 14 % of control; caspase-8 changes (death receptor pathway) (LTED cells [3]; FTS-treated LTED cells): no substantial caspase-8 changes
C[C@]12CC[C@@H]3c4ccc(O)cc4CC[C@H]3[C@@H]1CC[C@@H]2O [E2, 17β-Estradiol] | decreased | increased | not | increased | released into the cytosol | released into the cytosol | induced apoptosis | Bok level (LTED cells [1]; LTED cells, titration of E2): increased in a concentration-dependent manner
COC(=O)C[C@H](NC(=O)[C@H](C)NC(=O)[C@@H](NC(=O)OCc1ccccc1)C(C)C)C(=O)CF [z-VAD-fmk] (Cbz-Val-Ala-Asp(OMe)-CH2F) |  |  |  |  |  |  |  | effect on FTS-induced apoptosis (LTED cells [3]; LTED cells, FTS plus increasing concentrations of pan-caspase inhibitor): blocked
COc1cc(/C=C/C(=O)CC(=O)/C=C/c2ccc(O)c(OC)c2)ccc1O [curcumin] |  |  |  |  |  |  |  | concentration at which initial effects in reducing cell number were observed ([2]; dose response, preliminary studies): 250 nM; concentration showing effects in reducing cell number, later studies ([2]; later studies): 125 nM
CC[C@@H](C(=O)[C@@H](C)[C@@H](O)[C@H](C)[C@@H]1O[C@@H]([C@@H](CC)C(=O)O)CC[C@@H]1C)[C@H]1O[C@]2(C=C[C@@H](O)[C@]3(CC[C@@](C)([C@H]4CC[C@](O)(CC)[C@H](C)O4)O3)O2)[C@H](C)C[C@@H]1C [Salinomycin] |  |  |  |  |  |  |  | pIC50 (MCF-7 cells): 5.70
T-DM1 |  |  |  |  |  |  | induced apoptosis | 
